Entries after “also recorded” stand apart in the source; their conditions may differ. Read-outs that look alike come from different tables or passages of the source.
Legend:
[1] = rodent liver microsomes in vitro; cited from earlier work
xCT = assay: Western blot xCT expression in NAc-core, NAc-shell and liver (50 mg/kg study); assay type: in vivo, P rats; settings: MC-100093 50 mg/kg or ceftriaxone 200 mg/kg i.p. 5 days; for Protein expression of xCT in the NAc-shell: vs Ethanol group
Description: We used micro-punch procedure to dissect the subregions of the NAc such as NAc-core and NAc-shell as well as the subregions of prefrontal cortex such as infralimbic (IL) and prelimbic (PL) from the brain on day 6 after the last injection day. P rats were removed from the cage and rapidly euthanized by CO2 inhalation followed by rapid decapitation with a guillotine. Brains were isolated and immediately frozen on dry ice and stored at −80° C. The stereotaxic coordinates provided by Paxinos and colleague's rat brain stereotactic atlas was used to isolate NAc-core and NAc-shell using a cryostat apparatus (−20° C.), which then kept at −80° C. for later western blot analyses.
Western Blot assay was performed to measure changes in the expression of GLT-1, xCT, mGluR1, mGluR5, PPAR-α, PPARγ, GAPDH and β-tubulin in the NAc-core and NAc-shell as described in previous publications. A lysis buffer containing protease and phosphatase inhibitors was used to generate a homogenate of liver, Nac-core, and Nac-shell samples. The amount of protein was quantified using a detergent compatible protein assay (Bio-Rad, Hercules, CA, USA) for each sample. Samples were mixed with laemmli dye and loaded with equal amounts on polyacrylamide gels (10%), which separated the proteins using electrophoresis. After that, polyvinylidene difluoride (PVDF) membranes were used to transfer the proteins electrophoretically from the gels. Membranes were incubated in 5% free-fat milk in Tris-buffered saline with Tween-20 (TBST) for 30-60 minutes at room temperature. Membranes were then incubated with appropriate primary antibodies overnight at 4° C.: rabbit anti-GLT-1 (1:5000, Abcam, ab41621), rabbit anti-xCT (1:2000, Abcam, ab175186), rabbit anti-mGluR1 (1:1000, Abcam, ab82211), rabbit anti-mGluR5 (1:1000, Abcam, ab76316), rabbit anti-PPAR-α (1:1000, Abcam, ab24509), and rabbit anti-PPARγ (1:1000, Abcam, ab209350). Mouse anti-β-tubulin (1:1000; BioLegend) was used as a loading control antibody for the brain samples and rabbit anti-GAPDH (1:5000; cell signaling) was used as a loading control antibody for the liver samples. Membranes were washed five times on the next day with TBST followed by incubation with appropriate secondary antibody (1:5000) for 90 minutes at room temperature. Chemiluminescent reagents (Super Signal West Pico, Pierce Inc.) were used to detect the proteins using a GeneSys imaging system to develop the digitized blot images. Water-control group data were represented as 100% and all other values were expressed relative to control group to detect changes in the expression of the protein of interest in the brain and liver samples.
All statistical analyses were conducted with Graphpad Prism software, with p-values of 0.05 or less being statistically significant. We performed a two-way (mixed model) ANOVA followed by Bonferroni multiple comparison post-hoc test to analyze 24 h ethanol consumption, 24 h water consumption, and daily body weight. For the Western blot and oil red O staining analysis, we performed one-way ANOVA with Newman-Keuls as a post hoc multiple comparison test to measure differences between groups as a percentage (relative to control values).

glutamate uptake = settings: astrocyte-neuron co-culture model, cited from earlier work
[2] = cited from earlier work
[3] = Ethanol intake, preference, water intake and body weight in male and female P rats (section B); assay type: in vivo, Male and female alcohol-preferring (P) rats; settings: for Body weight / Ethanol consumption: 100 mg/kg; for Ethanol consumption / Ethanol preference / Water consumption: vs ethanol-saline group; for Ethanol preference / Water consumption: 100 mg/kg i.p.; for Ethanol preference: Day 1 through Day 5
Description: Male and female alcohol-preferring (P) rats were acquired from Indiana University School of Medicine, Indianapolis, IN at the age of 80-85 days. All animals were single housed in a room with temperature at 22° C. and 50% humidity in a 12 h light/dark cycle. Rats had free access to food and water throughout the experimental procedures. All the experimental procedures were approved by the University of Toledo Institutional Animal Care and Use Committee (IACUC) under IACUC protocol #400160.
At the age of 90-100 days, 5-7 male and female rats were assigned randomly to three groups: (1) Water-drinking (Water-Saline) group with no access to ethanol and served as a control group; (2) Ethanol-Saline group, which was exposed to continuous free-choice access to ethanol (15% and 30%, v/v, concurrently), and water for five weeks, and saline i.p. injections were performed from Days 1-5 on Week 6; and (3) Ethanol-MC-100093 group, which had continuous free-choice access to ethanol (15% and 30%, v/v), and water for five weeks, and MC-100093 i.p. injections were performed from Days 1-5 on Week 6. Ethanol and water intake were measured as g/kg/day. Rats were required to meet the criterion of an average ethanol consumption of 4 g/kg/day to be included in the study, for at least 2 weeks before saline vehicle or MC-100093 i.p. injections, as adopted in previous studies. Average ethanol and water consumptions throughout Week 5 served as a baseline. At Week 6 of the experiment, ethanol-MC-100093 group received MC-100093 at a dose of 100 mg/kg (i.p.) once daily for five days, and ethanol-saline and water-saline groups received saline vehicle as an i.p injection for five consecutive days. Water and ethanol were measured daily 24 hours after the first i.p. injections of saline or MC-100093 and 24 hours after the last i.p. injections of saline or MC-100093.
All statistical analyses were conducted using GraphPad Prism (10). Two-way (mixed) ANOVA followed by Bonferroni multiple comparison post-hoc test was performed to analyze daily ethanol intake, average daily water intake and body weight. One-way ANOVA followed by Newman-Keuls post hoc tests were used to analyze Western blot data. All statistical analyses data were reported as a p<0.05 of significance.
Ethanol preference was calculated as total ethanol consumption/total fluid consumption×100 from daily alcohol and water consumption.

[4] = female P rats, 100 mg/kg i.p. 5 days
[5] = male P rats, 100 mg/kg i.p. 5 days

**Q.** For C[C@@H](O)[C@H]1C(=O)N[C@@H]1[C@@H](C)C(=O)N1CCN(C)CC1 [MC-100093], which “Stability in liver microsomes” value [1] is on record?
**A.** high stability

**Q.** And the “Protein expression of xCT in the NAc-core” value (xCT; among all groups)?
**A.** non-significant difference; also recorded: no significant difference

**Q.** And the “Protein expression of xCT in the liver” value (xCT; between all groups)?
**A.** no significant differences

**Q.** What about the “Protein expression of xCT in the NAc-shell” value (xCT) of the same molecule?
**A.** significantly higher level of xCT; also recorded: normalized GLT-1 and xCT levels in the NAc-shell

**Q.** What about the “Protein expression of xCT in the NAc-shell” value (xCT; listed as MC-100095) of the same molecule?
**A.** significantly increased xCT expression

**Q.** And the “Enhancement of glutamate uptake” value (glutamate uptake)?
**A.** 23.5%

**Q.** What about the IC50 (glutamate uptake; read-out: IC50 (enhancement of glutamate uptake)) of the same molecule?
**A.** 100 nM

**Q.** And the Brain/plasma ratio ([2]; after intraperitoneal (i.p) injection)?
**A.** 14%

**Q.** And the “Oral bioavailability (in words)” value ([2]; following oral administration)?
**A.** orally bioavailable; also recorded: high oral bioavailability; also recorded: some bioavailability

**Q.** And the In vivo half-life ([2]; intraperitoneal route)?
**A.** 4.2 h

**Q.** What about the In vivo half-life ([2]; oral route) of the same molecule?
**A.** 5.26 h

**Q.** And the Oxidative metabolism ([2]; rat, in vivo)?
**A.** no oxidative metabolism

**Q.** What about the “Oral bioavailability (F)” value ([2]; rats) of the same molecule?
**A.** 28%

**Q.** And the “Attenuation effect on ethanol consumption, male compared with female P rats” value ([3]; 100 mg/kg i.p. 5 days)?
**A.** higher attenuation effect on ethanol consumption in male P rats exceeding female P rats

**Q.** And the Body weight [3, 4]?
**A.** no significant effect on body weights; also recorded: no effect on the body weight

**Q.** And the Ethanol consumption [3, 4]?
**A.** reduced ethanol consumption in both male and female P rats from Day 1-5; also recorded: significant decrease in ethanol consumption from Day 1 through Day 5; also recorded: decreased ethanol consumption in male and female P rats

**Q.** And the Ethanol preference ([3]; female P rats)?
**A.** significant decrease in percent ethanol preference

**Q.** What about the Water consumption ([3]; female P rats) of the same molecule?
**A.** significant increase in water consumption from Day 1 through Day 5

**Q.** And the Body weight [3, 5]?
**A.** no significant effect on body weights; also recorded: no effect on the body weight

**Q.** What about the Ethanol consumption [3, 5] of the same molecule?
**A.** reduced ethanol consumption in both male and female P rats from Day 1-5; also recorded: significant decrease in ethanol consumption from Day 1 through Day 5; also recorded: decreased ethanol consumption in male and female P rats

**Q.** And the Ethanol preference ([3]; male P rats)?
**A.** significant decrease in percent ethanol preference

**Q.** What about the Water consumption ([3]; male P rats) of the same molecule?
**A.** significant increase in water consumption from treatment Day 1 through Day 5

From patent US20250057808A1, “COMPOSITION COMPRISING BETA LACTAM FOR TREATING ALCOHOL DEPENDENCE AND ALCOHOL ASSOCIATED DISEASES OR CONDITIONS” (Temple University of the Commonwealth System of Higher …, priority 2023, published 2025)
